# Test results reported in PMC5218480 (PLoS ONE, 2017).
# Tested on: MV-4-11 cells
# Test: Gene expression microarray analysis (Affymetrix PrimeView) and GSEA
# Format: cell-based, human
# Set-up: RFU PODN (11730768_x_at) / Fold change /veh PODN (11730768_x_at) / RFU LINC00158 (11744669_a_at) / Fold change /veh LINC00158 (11744669_a_at) / RFU DUSP10 (11751237_a_at) / Fold change /veh DUSP10 (11751237_a_at) / RFU ID3 (11757404_x_at) / Fold change /veh ID3 (11757404_x_at) / RFU PLEKHG5 (11737974_s_at) / Fold change /veh PLEKHG5 (11737974_s_at) / RFU LRRC4B (11730491_at) / Fold change /veh LRRC4B (11730491_at) / RFU GIMAP4 (11747438_a_at) / Fold change /veh GIMAP4 (11747438_a_at) / RFU KRT8 (11758183_x_at) / Fold change /veh KRT8 (11758183_x_at) / RFU CNN1 (11734310_a_at) / Fold change /veh CNN1 (11734310_a_at) / RFU VPS37D (11726825_at) / Fold change /veh VPS37D (11726825_at) / RFU C10orf10 (11716522_x_at) / Fold change /veh C10orf10 (11716522_x_at) / RFU KIR2DL2 /// KIR2DL4 /// KIR2DL5A /// KIR2DL5B /// KIR2DS1 /// KIR2DS2 /// KIR2DS3 /// KIR2DS4 /// KIR3DL3 /// KIR3DL3 /// KIR3DS1 (11738374_at) / Fold change /veh KIR2DL2 /// KIR2DL4 /// KIR2DL5A /// KIR2DL5B /// KIR2DS1 /// KIR2DS2 /// KIR2DS3 /// KIR2DS4 /// KIR3DL3 /// KIR3DL3 /// KIR3DS1 (11738374_at) / RFU C1QL1 (11718748_at) / Fold change /veh C1QL1 (11718748_at) / RFU TMPRSS4 (11747572_a_at) / Fold change /veh TMPRSS4 (11747572_a_at) / RFU HAMP (11756126_x_at) / Fold change /veh HAMP (11756126_x_at) / RFU RNFT2 (11725882_a_at) / Fold change /veh RNFT2 (11725882_a_at) / RFU NR4A2 (11747474_a_at) / Fold change /veh NR4A2 (11747474_a_at) / RFU ABCC12 (11746883_a_at) / Fold change /veh ABCC12 (11746883_a_at) / RFU TMEM136 (11760407_x_at) / Fold change /veh TMEM136 (11760407_x_at) / RFU CLDN22 /// WWC2 (11732394_at) / Fold change /veh CLDN22 /// WWC2 (11732394_at) / RFU HLA-DPB1 (11760878_x_at) / Fold change /veh HLA-DPB1 (11760878_x_at) / RFU SPINT1 (11716480_a_at) / Fold change /veh SPINT1 (11716480_a_at) / RFU GAP43 (11754022_s_at) / Fold change /veh GAP43 (11754022_s_at) / RFU A4GNT (11735810_at) / Fold change /veh A4GNT (11735810_at) / RFU PRB3 (11715151_x_at) / Fold change /veh PRB3 (11715151_x_at) / RFU TUBB4B (11761932_at) / Fold change /veh TUBB4B (11761932_at) / RFU CAPN14 (11732068_a_at) / Fold change /veh CAPN14 (11732068_a_at) / RFU TMCC2 (11721928_a_at) / Fold change /veh TMCC2 (11721928_a_at) / RFU IRGQ (11745062_a_at) / Fold change /veh IRGQ (11745062_a_at) / RFU FAM174B (11720279_a_at) / Fold change /veh FAM174B (11720279_a_at) / RFU TMPRSS4 (11748680_a_at) / Fold change /veh TMPRSS4 (11748680_a_at) / RFU FAM212B (11763350_a_at) / Fold change /veh FAM212B (11763350_a_at) / RFU PLEKHG5 (11743358_a_at) / Fold change /veh PLEKHG5 (11743358_a_at) / RFU ZSCAN30 (11745921_a_at) / Fold change /veh ZSCAN30 (11745921_a_at) / RFU CMKLR1 (11741424_a_at) / Fold change /veh CMKLR1 (11741424_a_at) / RFU LOC101060620 /// MAPK8IP1 (11723275_at) / Fold change /veh LOC101060620 /// MAPK8IP1 (11723275_at) / RFU SPTSSB (11747773_x_at) / Fold change /veh SPTSSB (11747773_x_at) / RFU PRSS12 (11739890_at) / Fold change /veh PRSS12 (11739890_at) / RFU BIN1 (11741810_x_at) / Fold change /veh BIN1 (11741810_x_at) / RFU WNT11 (11732464_a_at) / Fold change /veh WNT11 (11732464_a_at) / RFU C10orf10 (11716521_a_at) / Fold change /veh C10orf10 (11716521_a_at) / RFU C5orf56 (11738089_at) / Fold change /veh C5orf56 (11738089_at) / RFU CYB561 (11721691_x_at) / Fold change /veh CYB561 (11721691_x_at) / RFU ANKRD19P (11752326_a_at) / Fold change /veh ANKRD19P (11752326_a_at) / RFU OR2T12 /// OR2T33 /// OR2T8 (11738714_s_at) / Fold change /veh OR2T12 /// OR2T33 /// OR2T8 (11738714_s_at) / RFU VCAN (11748164_a_at) / Fold change /veh VCAN (11748164_a_at) / RFU JSRP1 (11732532_at) / Fold change /veh JSRP1 (11732532_at) / RFU KRTAP10-11 (11738290_x_at) / Fold change /veh KRTAP10-11 (11738290_x_at) / RFU MYO3A (11730013_a_at) / Fold change /veh MYO3A (11730013_a_at) / RFU EBF3 (11725865_a_at) / Fold change /veh EBF3 (11725865_a_at) / RFU CAMK2N1 (11719241_x_at) / Fold change /veh CAMK2N1 (11719241_x_at) / RFU C5orf56 (11738088_a_at) / Fold change /veh C5orf56 (11738088_a_at) / RFU OLFML3 (11715873_a_at) / Fold change /veh OLFML3 (11715873_a_at) / RFU LOC100653217 /// NTM (11731650_a_at) / Fold change /veh LOC100653217 /// NTM (11731650_a_at) / RFU MAPK11 (11762145_a_at) / Fold change /veh MAPK11 (11762145_a_at) / RFU FIZ1 (11724087_x_at) / Fold change /veh FIZ1 (11724087_x_at) / RFU OASL (11726364_x_at) / Fold change /veh OASL (11726364_x_at) / RFU SOX15 (11748057_x_at) / Fold change /veh SOX15 (11748057_x_at) / RFU CD79A (11719716_a_at) / Fold change /veh CD79A (11719716_a_at) / RFU HIST1H1D (11736915_at) / Fold change /veh HIST1H1D (11736915_at) / RFU CASKIN2 (11723855_a_at) / Fold change /veh CASKIN2 (11723855_a_at) / RFU LOC730098 (11760151_x_at) / Fold change /veh LOC730098 (11760151_x_at) / RFU OR4N2 (11742367_at) / Fold change /veh OR4N2 (11742367_at) / RFU PRRT2 (11749266_a_at) / Fold change /veh PRRT2 (11749266_a_at) / RFU SNX32 (11753110_a_at) / Fold change /veh SNX32 (11753110_a_at) / RFU CDHR5 (11726645_a_at) / Fold change /veh CDHR5 (11726645_a_at) / RFU RCAN1 (11760418_a_at) / Fold change /veh RCAN1 (11760418_a_at) / RFU FAM167A (11723789_a_at) / Fold change /veh FAM167A (11723789_a_at) / RFU FAM26E (11764081_at) / Fold change /veh FAM26E (11764081_at) / RFU ISYNA1 (11749810_s_at) / Fold change /veh ISYNA1 (11749810_s_at) / RFU ACY1 (11761880_at) / Fold change /veh ACY1 (11761880_at) / RFU 11764098_at / Fold change /veh 11764098_at / RFU SAMD14 (11745864_x_at) / Fold change /veh SAMD14 (11745864_x_at) / RFU NPB (11741838_a_at) / Fold change /veh NPB (11741838_a_at) / RFU TMPRSS6 (11731388_a_at) / Fold change /veh TMPRSS6 (11731388_a_at) / RFU KRTAP10-2 (11738614_at) / Fold change /veh KRTAP10-2 (11738614_at) / RFU ARHGAP8 /// PRR5-ARHGAP8 (11727945_x_at) / Fold change /veh ARHGAP8 /// PRR5-ARHGAP8 (11727945_x_at) / RFU KRTAP5-7 /// NADSYN1 (11734609_at) / Fold change /veh KRTAP5-7 /// NADSYN1 (11734609_at) / RFU RASL12 (11751679_a_at) / Fold change /veh RASL12 (11751679_a_at) / RFU CDKN2B (11736163_a_at) / Fold change /veh CDKN2B (11736163_a_at) / RFU PRF1 (11729649_at) / Fold change /veh PRF1 (11729649_at) / RFU, ZNF638 /// ZNF638-IT1 / Fold change vs veh, ZNF638 /// ZNF638-IT1 / RFU, PANK3 / Fold change vs veh, PANK3 / RFU, SH3YL1 / Fold change vs veh, SH3YL1 / RFU, ZEB2 / Fold change vs veh, ZEB2 / RFU, NRIP1 / Fold change vs veh, NRIP1 / RFU, PTTG1IP / Fold change vs veh, PTTG1IP / RFU, CAPN2 / Fold change vs veh, CAPN2 / RFU, MED14 / Fold change vs veh, MED14 / RFU, SNORA58 / Fold change vs veh, SNORA58 / RFU, C1orf63 / Fold change vs veh, C1orf63 / RFU, LRRFIP1 / Fold change vs veh, LRRFIP1 / RFU, NDUFAF7 / Fold change vs veh, NDUFAF7 / RFU, SLC12A2 / Fold change vs veh, SLC12A2 / RFU, IBTK / Fold change vs veh, IBTK / RFU, ESF1 / Fold change vs veh, ESF1 / Fold change vs veh, TMEM50B / RFU, TAOK1 / Fold change vs veh, TAOK1 / RFU, ACBD3 / Fold change vs veh, ACBD3 / RFU, TMA16 / Fold change vs veh, TMA16 / RFU, RWDD3 / Fold change vs veh, RWDD3 / RFU, BCAT1 / Fold change vs veh, BCAT1 / RFU, EDEM3 / Fold change vs veh, EDEM3 / RFU, TMEM33 / Fold change vs veh, TMEM33 / RFU, WDR75 / Fold change vs veh, WDR75 / RFU, AHCTF1 / Fold change vs veh, AHCTF1 / RFU, TFRC / Fold change vs veh, TFRC / RFU, ZDHHC17 / Fold change vs veh, ZDHHC17 / RFU, NOM1 / Fold change vs veh, NOM1 / RFU, ARL8B / Fold change vs veh, ARL8B / RFU, ZBTB11 / Fold change vs veh, ZBTB11 / RFU, TAMM41 / Fold change vs veh, TAMM41 / RFU, KIAA1704 /// LOC100996395 / Fold change vs veh, KIAA1704 /// LOC100996395 / RFU, ING1 / Fold change vs veh, ING1 / RFU, TRMT61B / Fold change vs veh, TRMT61B / RFU, FUBP3 / Fold change vs veh, FUBP3 / RFU, TP53 / Fold change vs veh, TP53 / RFU, TNKS2 / Fold change vs veh, TNKS2 / RFU, ZFP14 / Fold change vs veh, ZFP14 / RFU, ACTR2 / Fold change vs veh, ACTR2 / RFU, PPP3R1 / Fold change vs veh, PPP3R1 / RFU, PIK3R1 / Fold change vs veh, PIK3R1 / RFU, HNRNPA1 / Fold change vs veh, HNRNPA1 / RFU, RNF170 / Fold change vs veh, RNF170 / RFU, ZNF28 / Fold change vs veh, ZNF28 / RFU, RNGTT / Fold change vs veh, RNGTT / RFU, OGT / Fold change vs veh, OGT / RFU, BRD1 / Fold change vs veh, BRD1 / RFU, MARS / Fold change vs veh, MARS / RFU, ZNF655 / Fold change vs veh, ZNF655 / RFU, FAHD1 / Fold change vs veh, FAHD1 / RFU, BDP1 / Fold change vs veh, BDP1 / RFU, LRRCC1 / Fold change vs veh, LRRCC1 / RFU, ARID1A / Fold change vs veh, ARID1A / RFU, ZNF146 / Fold change vs veh, ZNF146 / RFU, ZNF330 / Fold change vs veh, ZNF330 / RFU, GPN3 / Fold change vs veh, GPN3 / RFU, C9orf123 / Fold change vs veh, C9orf123 / RFU, N4BP2L2 / Fold change vs veh, N4BP2L2 / RFU, ARFIP1 / Fold change vs veh, ARFIP1 / RFU, FAM179B / Fold change vs veh, FAM179B / RFU, BCL10 / Fold change vs veh, BCL10 / RFU, UHRF1BP1L / Fold change vs veh, UHRF1BP1L / RFU, BET1 / Fold change vs veh, BET1 / RFU, CNOT2 / Fold change vs veh, CNOT2 / RFU, ZNF268 / Fold change vs veh, ZNF268 / Fold change vs veh, ZNF507 / RFU, DGCR2 / Fold change vs veh, DGCR2 / RFU, WDSUB1 / Fold change vs veh, WDSUB1 / Fold change vs veh, HSP90B1 /// MIR3652 / RFU, ADSS / Fold change vs veh, ADSS / RFU, GK / Fold change vs veh, GK / RFU, ZNF148 / Fold change vs veh, ZNF148 / RFU, TAF9 / Fold change vs veh, TAF9 / RFU, SLC1A5 / Fold change vs veh, SLC1A5 / RFU, SLMO2 / Fold change vs veh, SLMO2 / RFU, ABCC4 / Fold change vs veh, ABCC4 / RFU, LOC101060439 /// RAP1B / Fold change vs veh, LOC101060439 /// RAP1B / RFU, RFX7 / Fold change vs veh, RFX7 / RFU, GTPBP10 / Fold change vs veh, GTPBP10 / RFU, CNEP1R1 / Fold change vs veh, CNEP1R1 / RFU, BIVM-ERCC5 /// ERCC5 / Fold change vs veh, BIVM-ERCC5 /// ERCC5 / RFU, ILF3 / Fold change vs veh, ILF3 / RFU 11762660_at / Fold change /veh 11762660_at / RFU VCAN (11757783_s_at) / Fold change /veh VCAN (11757783_s_at) / RFU DDX43 (11728927_at) / Fold change /veh DDX43 (11728927_at) / RFU KRT8 (11758188_x_at) / Fold change /veh KRT8 (11758188_x_at) / RFU NKD1 (11759106_at) / Fold change /veh NKD1 (11759106_at) / RFU SRD5A1 (11742802_a_at) / Fold change /veh SRD5A1 (11742802_a_at) / RFU TPSAB1 /// TPSB2 (11721975_s_at) / Fold change /veh TPSAB1 /// TPSB2 (11721975_s_at) / RFU GSTM3 (11746129_a_at) / Fold change /veh GSTM3 (11746129_a_at) / RFU IL23R (11737362_x_at) / Fold change /veh IL23R (11737362_x_at) / RFU TMEM51 (11727254_a_at) / Fold change /veh TMEM51 (11727254_a_at) / RFU PIWIL2 (11732686_x_at) / Fold change /veh PIWIL2 (11732686_x_at) / RFU ORM1 (11744905_x_at) / Fold change /veh ORM1 (11744905_x_at) / RFU CCDC152 (11743942_at) / Fold change /veh CCDC152 (11743942_at) / RFU ECM1 (11717891_a_at) / Fold change /veh ECM1 (11717891_a_at) / RFU IL23R (11748794_a_at) / Fold change /veh IL23R (11748794_a_at) / RFU TNFAIP8L3 (11732012_x_at) / Fold change /veh TNFAIP8L3 (11732012_x_at) / RFU MBOAT4 (11741988_at) / Fold change /veh MBOAT4 (11741988_at) / RFU 11764193_at / Fold change /veh 11764193_at / RFU TMEM53 (11763286_at) / Fold change /veh TMEM53 (11763286_at) / RFU MAGEB2 (11727129_at) / Fold change /veh MAGEB2 (11727129_at) / RFU TMEM200A (11744735_a_at) / Fold change /veh TMEM200A (11744735_a_at) / RFU CCDC152 (11751479_a_at) / Fold change /veh CCDC152 (11751479_a_at) / RFU FAM211A (11726209_a_at) / Fold change /veh FAM211A (11726209_a_at) / RFU RGS16 (11746705_a_at) / Fold change /veh RGS16 (11746705_a_at) / RFU VCAN (11755009_s_at) / Fold change /veh VCAN (11755009_s_at) / RFU RHOB (11743442_s_at) / Fold change /veh RHOB (11743442_s_at) / RFU RGS16 (11720943_a_at) / Fold change /veh RGS16 (11720943_a_at) / RFU RGS16 (11720944_at) / Fold change /veh RGS16 (11720944_at) / RFU, VPS4B / Fold change vs veh, VPS4B / RFU, CREB1 / Fold change vs veh, CREB1 / RFU, DNAJC13 / Fold change vs veh, DNAJC13 / RFU, GNAQ / Fold change vs veh, GNAQ / RFU, CDK5R1 / Fold change vs veh, CDK5R1 / RFU, ZRANB3 / Fold change vs veh, ZRANB3 / RFU, CUL4A / Fold change vs veh, CUL4A / RFU, CCNY / Fold change vs veh, CCNY / RFU, UFL1 / Fold change vs veh, UFL1 / RFU, COG3 / Fold change vs veh, COG3 / RFU, DIAPH2 / Fold change vs veh, DIAPH2 / RFU, SKA2 / Fold change vs veh, SKA2 / RFU, AFF3 / Fold change vs veh, AFF3 / RFU, LMF1 / Fold change vs veh, LMF1 / RFU, IPO11 / Fold change vs veh, IPO11 / RFU, DFFB / Fold change vs veh, DFFB / RFU, FOXP1 / Fold change vs veh, FOXP1 / RFU, CARD8 / Fold change vs veh, CARD8 / RFU, STRN3 / Fold change vs veh, STRN3 / RFU, ADK / Fold change vs veh, ADK / RFU, RASSF2 / Fold change vs veh, RASSF2 / RFU, WIPF1 / Fold change vs veh, WIPF1 / RFU, LARP1B / Fold change vs veh, LARP1B / RFU, RASA1 / Fold change vs veh, RASA1 / RFU, RB1 / Fold change vs veh, RB1 / RFU, PPFIA1 / Fold change vs veh, PPFIA1 / RFU, MAT2A / Fold change vs veh, MAT2A / RFU, CCT5 / Fold change vs veh, CCT5 / RFU, WDR92 / Fold change vs veh, WDR92 / RFU, CUX1 / Fold change vs veh, CUX1 / RFU, TTC7A / Fold change vs veh, TTC7A / RFU, TMEM135 / Fold change vs veh, TMEM135 / RFU, DEPTOR / Fold change vs veh, DEPTOR / RFU, CPM / Fold change vs veh, CPM / RFU, DNAJB6 / Fold change vs veh, DNAJB6 / RFU, CACNA2D3 / Fold change vs veh, CACNA2D3 / RFU, DTX4 / Fold change vs veh, DTX4 / RFU, TFCP2 / Fold change vs veh, TFCP2 / RFU, GMCL1 /// GMCL1P1 / Fold change vs veh, GMCL1 /// GMCL1P1 / RFU, AEBP2 / Fold change vs veh, AEBP2 / RFU, SNHG1 /// SNORD22 /// SNORD25 /// SNORD26 /// SNORD27 /// SNORD28 /// SNORD29 /// SNORD31 / Fold change vs veh, SNHG1 /// SNORD22 /// SNORD25 /// SNORD26 /// SNORD27 /// SNORD28 /// SNORD29 /// SNORD31 / Fold change (Aza/veh), C12orf56 (ProbeSet 11735607_a_at) / Fold change (ACY-1035/veh), C12orf56 (ProbeSet 11735607_a_at) / Fold change (Aza/veh), FGFR1OP (ProbeSet 11751329_s_at) / Fold change (ACY-1035/veh), FGFR1OP (ProbeSet 11751329_s_at) / Fold change (Aza/veh), VPS36 (ProbeSet 11739960_a_at) / Fold change (ACY-1035/veh), VPS36 (ProbeSet 11739960_a_at) / RFU SYPL1 (11715823_x_at) / Fold change /veh SYPL1 (11715823_x_at) / RFU IGFBP7 (11715501_s_at) / Fold change /veh IGFBP7 (11715501_s_at) / RFU REEP3 (11722064_at) / Fold change /veh REEP3 (11722064_at) / RFU IGLL1 (11728026_x_at) / Fold change /veh IGLL1 (11728026_x_at): dose or concentration left out as unconfirmed
# Conditions: ProbeSet 11731583_a_at; LIST D
compound,measurement,value
Nc1ccc(-c2cccs2)cc1NC(=O)c1ccc2c(c1)cc(C1CC1)n2CCN1CCOCC1 [ACY-1035],"RFU, LARP1B",84.89 RFU
